# Test results as given in article PMC4522657, “Identification of a DYRK1A Inhibitor that Induces Degradation of the Target Kinase using Co-chaperone CDC37 fused with Luciferase nanoKAZ” (Scientific Reports, 2015).
# Columns and labels:
# GSK3α = molecular target: T1, GSK3α (Homo sapiens, UniProt P49840); test: Kinase panel, CaNDY 1 µM; format: biochemical; conditions: CaNDY 1 µM relative to DMSO
# T1 construct: purchased Carna Biosciences
# CaMK1δ = molecular target: T2, CaMK1δ (Homo sapiens, UniProt Q8IU85); test: Kinase panel, CaNDY 1 µM; format: biochemical; conditions: CaNDY 1 µM relative to DMSO
# T2 construct: purchased Carna Biosciences
# TRKC = molecular target: T3, TRKC (Homo sapiens, UniProt Q16288); test: Kinase panel, CaNDY 1 µM; format: biochemical; conditions: CaNDY 1 µM relative to DMSO
# T3 construct: purchased Carna Biosciences
# DYRK1A = DYRK1A (Homo sapiens, UniProt Q13627); test: In vitro kinase assay, substrate DYRKtide-F; format: biochemical; set-up: full-length human recombinant kinases were expressed using a baculovirus expression system as amino-terminal GST-fusion proteins; GST (N); purchased Carna Biosciences; host or cells: baculovirus expression system; conditions: 25 μM ATP, 1 μM DYRKtide-F; read-out: IC50, substrate phosphorylation
# Source text: (§1) Detailed information on the assay conditions is available on the website of Carna Biosciences (http://www.carnabio.com/english/index.html; Kobe, Japan). In brief, full-length human recombinant kinases were expressed using a baculovirus expression system as amino-terminal GST-fusion proteins, and purified by glutathione-Sepharose chromatography. The GenBank accession numbers of DYRK1A, DYRK1B, DYRK2, and DYRK3 were NP_001387.2, NP_004705.1, NP_003574.1, and NP_003573.2. […] For each compound, a DMSO solution was diluted in assay buffer to yield a final concentration of 1% DMSO. After incubation for one hour at room temperature, substrate phosphorylation was analyzed by electrophoretic separation of the substrate and products using a Caliper LC3000 platform (Caliper Life Sciences, Mountain View, CA, USA). The phosphorylated product (P)/(P + substrate) ratio was calculated at each concentration of each small molecule and the percent inhibition was expressed relative to a control assay in the absence of the small molecule. […] The IC50 of each compound was calculated by interpolation on a log-concentration-response curve fitted with a four-parameter logistic equation.
# DYRK1B = DYRK1B (Homo sapiens, UniProt Q9Y463); test: In vitro kinase assay, substrate DYRKtide-F; format: biochemical; set-up: full-length human recombinant kinases were expressed using a baculovirus expression system as amino-terminal GST-fusion proteins; GST (N); purchased Carna Biosciences; host or cells: baculovirus expression system; conditions: 50 μM ATP, 1 μM DYRKtide-F
# Source text: as §1
# PKCβ2 = molecular target: T4, PKCβ2 (Homo sapiens, UniProt P05771); test: Kinase panel, CaNDY 1 µM; format: biochemical; conditions: CaNDY 1 µM relative to DMSO
# T4 construct: purchased Carna Biosciences
# PDHK4 = molecular target: T5, PDHK4 (Homo sapiens, UniProt Q16654); test: Kinase panel, CaNDY 1 µM; format: biochemical; conditions: CaNDY 1 µM relative to DMSO
# T5 construct: purchased Carna Biosciences
# T5 sequence (Q16654 whole entry): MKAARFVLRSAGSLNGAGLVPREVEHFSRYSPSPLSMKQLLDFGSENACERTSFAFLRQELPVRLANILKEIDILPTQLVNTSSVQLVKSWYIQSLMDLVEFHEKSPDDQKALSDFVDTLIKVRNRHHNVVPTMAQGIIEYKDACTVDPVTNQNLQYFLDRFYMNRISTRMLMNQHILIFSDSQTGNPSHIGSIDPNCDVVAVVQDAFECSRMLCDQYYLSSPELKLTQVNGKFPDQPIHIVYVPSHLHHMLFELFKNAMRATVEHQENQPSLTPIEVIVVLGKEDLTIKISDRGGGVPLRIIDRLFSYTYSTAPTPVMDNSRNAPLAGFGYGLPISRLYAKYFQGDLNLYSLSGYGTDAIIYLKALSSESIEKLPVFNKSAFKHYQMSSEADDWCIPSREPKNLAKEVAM
# PIM2 = molecular target: T6, PIM2 (Homo sapiens, UniProt Q9P1W9); test: Kinase panel, CaNDY 1 µM; format: biochemical; conditions: CaNDY 1 µM relative to DMSO
# T6 construct: purchased Carna Biosciences
# MLK2_Cascade = molecular target: T7, MLK2_Cascade (Homo sapiens, UniProt Q02779); test: Kinase panel, CaNDY 1 µM; format: biochemical; conditions: CaNDY 1 µM relative to DMSO
# T7 construct: purchased Carna Biosciences
# EGFR(T790M/L858R) = molecular target: T8, EGFR(T790M/L858R) (Homo sapiens, UniProt P00533, L858R/T790M); test: Kinase panel, CaNDY 1 µM; format: biochemical; conditions: CaNDY 1 µM relative to DMSO
# T8 construct: purchased Carna Biosciences
# JAK1 = molecular target: T9, JAK1 (Homo sapiens, UniProt P23458); test: Kinase panel, CaNDY 1 µM; format: biochemical; conditions: CaNDY 1 µM relative to DMSO
# T9 construct: purchased Carna Biosciences
# T9 sequence (P23458 whole entry): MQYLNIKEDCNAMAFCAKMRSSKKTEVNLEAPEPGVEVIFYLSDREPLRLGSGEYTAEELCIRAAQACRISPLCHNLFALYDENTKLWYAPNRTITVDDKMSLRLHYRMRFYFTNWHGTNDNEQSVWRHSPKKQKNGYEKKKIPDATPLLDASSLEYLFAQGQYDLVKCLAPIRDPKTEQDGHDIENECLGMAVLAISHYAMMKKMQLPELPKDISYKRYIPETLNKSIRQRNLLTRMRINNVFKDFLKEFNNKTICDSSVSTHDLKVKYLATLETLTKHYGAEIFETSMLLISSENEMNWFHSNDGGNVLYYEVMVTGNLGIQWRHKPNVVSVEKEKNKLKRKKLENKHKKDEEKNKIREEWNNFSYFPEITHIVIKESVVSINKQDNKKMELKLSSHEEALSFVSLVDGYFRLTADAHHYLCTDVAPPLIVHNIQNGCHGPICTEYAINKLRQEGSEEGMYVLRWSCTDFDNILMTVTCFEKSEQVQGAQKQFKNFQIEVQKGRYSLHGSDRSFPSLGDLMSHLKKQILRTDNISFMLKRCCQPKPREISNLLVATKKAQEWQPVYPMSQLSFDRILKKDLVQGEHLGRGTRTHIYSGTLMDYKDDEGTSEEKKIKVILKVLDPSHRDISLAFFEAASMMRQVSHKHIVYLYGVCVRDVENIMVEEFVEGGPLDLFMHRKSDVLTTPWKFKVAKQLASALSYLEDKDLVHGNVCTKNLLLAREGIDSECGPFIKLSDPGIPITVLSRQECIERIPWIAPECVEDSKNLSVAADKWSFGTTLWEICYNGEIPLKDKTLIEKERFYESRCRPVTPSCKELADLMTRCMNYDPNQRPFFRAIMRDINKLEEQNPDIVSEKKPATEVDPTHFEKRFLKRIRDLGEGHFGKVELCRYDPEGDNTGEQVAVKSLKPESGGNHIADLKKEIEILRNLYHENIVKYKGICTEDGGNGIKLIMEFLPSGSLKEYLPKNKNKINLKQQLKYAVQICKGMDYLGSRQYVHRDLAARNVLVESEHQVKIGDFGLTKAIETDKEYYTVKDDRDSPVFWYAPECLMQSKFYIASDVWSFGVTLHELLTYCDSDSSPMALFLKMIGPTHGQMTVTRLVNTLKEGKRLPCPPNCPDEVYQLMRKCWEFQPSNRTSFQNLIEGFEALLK
# MNK2 = molecular target: T10, MNK2 (Homo sapiens, UniProt Q9HBH9); test: Kinase panel, CaNDY 1 µM; format: biochemical; conditions: CaNDY 1 µM relative to DMSO
# T10 construct: purchased Carna Biosciences
# IRAK1 = molecular target: T11, IRAK1 (Homo sapiens, UniProt P51617); test: Kinase panel, CaNDY 1 µM; format: biochemical; conditions: CaNDY 1 µM relative to DMSO
# T11 construct: purchased Carna Biosciences
# T11 sequence (P51617 whole entry): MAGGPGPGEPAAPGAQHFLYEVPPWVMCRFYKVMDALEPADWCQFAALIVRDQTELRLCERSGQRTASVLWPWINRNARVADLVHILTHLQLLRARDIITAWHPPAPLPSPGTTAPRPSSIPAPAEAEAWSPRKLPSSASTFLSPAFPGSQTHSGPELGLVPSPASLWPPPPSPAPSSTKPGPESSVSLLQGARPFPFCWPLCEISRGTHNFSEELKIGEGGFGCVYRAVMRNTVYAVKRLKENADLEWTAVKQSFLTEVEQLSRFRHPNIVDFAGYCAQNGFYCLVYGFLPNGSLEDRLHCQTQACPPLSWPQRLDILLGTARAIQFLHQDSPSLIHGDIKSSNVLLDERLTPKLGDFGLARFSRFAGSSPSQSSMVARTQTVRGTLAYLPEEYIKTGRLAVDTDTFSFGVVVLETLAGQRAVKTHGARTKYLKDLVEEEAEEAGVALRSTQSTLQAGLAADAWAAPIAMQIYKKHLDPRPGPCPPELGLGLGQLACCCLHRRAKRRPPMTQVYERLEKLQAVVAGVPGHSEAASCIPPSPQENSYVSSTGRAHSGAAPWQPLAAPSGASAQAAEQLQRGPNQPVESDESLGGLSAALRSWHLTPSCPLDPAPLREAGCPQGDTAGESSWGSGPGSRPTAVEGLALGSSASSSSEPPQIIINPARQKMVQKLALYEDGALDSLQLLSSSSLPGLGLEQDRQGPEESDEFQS
# MAP2K7_Cascade = molecular target: T12, MAP2K7_Cascade (Homo sapiens, UniProt O14733); test: Kinase panel, CaNDY 1 µM; format: biochemical; conditions: CaNDY 1 µM relative to DMSO
# T12 construct: purchased Carna Biosciences
# MAP3K4_Cascade = molecular target: T13, MAP3K4_Cascade (Homo sapiens, UniProt Q9Y6R4); test: Kinase panel, CaNDY 1 µM; format: biochemical; conditions: CaNDY 1 µM relative to DMSO
# T13 construct: purchased Carna Biosciences
# PDHK2 = molecular target: T14, PDHK2 (Homo sapiens, UniProt Q15119); test: Kinase panel, CaNDY 1 µM; format: biochemical; conditions: CaNDY 1 µM relative to DMSO
# T14 construct: purchased Carna Biosciences
# CK2α = molecular target: T15, CK2α (Homo sapiens, UniProt P68400); test: Western blot of kinase expression in HEK293 cells; format: cell-based; conditions: CaNDY 2 μM, 4 days
# T15 construct: endogenous in cells; host or cells: HEK293
# Procedure: To check selectivity of CaNDY for other kinases, we first examined protein expression of several kinases in HEK293 cells treated with CaNDY (2 μM) for 4 days. […] Third, protein expression of these kinases targeted by CaNDY (DYRK1A, DYRK1B, CLK1, and Haspin) was reassessed by Western blot analysis as performed in Fig. 7b.
# Western blot analysis was performed using the antibodies described above. In brief, total cell lysates were separated by SDS-PAGE (5–20% gels; ATTO, Tokyo, Japan) under reducing conditions and then transferred to a PVDF membrane (PALL, SP, Brazil). Antibody reactions were performed with Can Get Signal® Immunoreaction Enhancer Solution (Toyobo). Peroxidase activities on the membrane were visualized with ECL Western Blotting Detection Reagents (GE Healthcare) or ImmunoStar® LD (Wako Pure Chemical Industries, Osaka, Japan), and a ChemiDoc^TM MP Imaging System (Bio-Rad, Hercules, CA, USA).
# INSR = molecular target: T16, INSR (Homo sapiens, UniProt P06213); test: Kinase panel, CaNDY 1 µM; format: biochemical; conditions: CaNDY 1 µM relative to DMSO
# T16 construct: purchased Carna Biosciences
# T16 sequence (P06213 28-1382): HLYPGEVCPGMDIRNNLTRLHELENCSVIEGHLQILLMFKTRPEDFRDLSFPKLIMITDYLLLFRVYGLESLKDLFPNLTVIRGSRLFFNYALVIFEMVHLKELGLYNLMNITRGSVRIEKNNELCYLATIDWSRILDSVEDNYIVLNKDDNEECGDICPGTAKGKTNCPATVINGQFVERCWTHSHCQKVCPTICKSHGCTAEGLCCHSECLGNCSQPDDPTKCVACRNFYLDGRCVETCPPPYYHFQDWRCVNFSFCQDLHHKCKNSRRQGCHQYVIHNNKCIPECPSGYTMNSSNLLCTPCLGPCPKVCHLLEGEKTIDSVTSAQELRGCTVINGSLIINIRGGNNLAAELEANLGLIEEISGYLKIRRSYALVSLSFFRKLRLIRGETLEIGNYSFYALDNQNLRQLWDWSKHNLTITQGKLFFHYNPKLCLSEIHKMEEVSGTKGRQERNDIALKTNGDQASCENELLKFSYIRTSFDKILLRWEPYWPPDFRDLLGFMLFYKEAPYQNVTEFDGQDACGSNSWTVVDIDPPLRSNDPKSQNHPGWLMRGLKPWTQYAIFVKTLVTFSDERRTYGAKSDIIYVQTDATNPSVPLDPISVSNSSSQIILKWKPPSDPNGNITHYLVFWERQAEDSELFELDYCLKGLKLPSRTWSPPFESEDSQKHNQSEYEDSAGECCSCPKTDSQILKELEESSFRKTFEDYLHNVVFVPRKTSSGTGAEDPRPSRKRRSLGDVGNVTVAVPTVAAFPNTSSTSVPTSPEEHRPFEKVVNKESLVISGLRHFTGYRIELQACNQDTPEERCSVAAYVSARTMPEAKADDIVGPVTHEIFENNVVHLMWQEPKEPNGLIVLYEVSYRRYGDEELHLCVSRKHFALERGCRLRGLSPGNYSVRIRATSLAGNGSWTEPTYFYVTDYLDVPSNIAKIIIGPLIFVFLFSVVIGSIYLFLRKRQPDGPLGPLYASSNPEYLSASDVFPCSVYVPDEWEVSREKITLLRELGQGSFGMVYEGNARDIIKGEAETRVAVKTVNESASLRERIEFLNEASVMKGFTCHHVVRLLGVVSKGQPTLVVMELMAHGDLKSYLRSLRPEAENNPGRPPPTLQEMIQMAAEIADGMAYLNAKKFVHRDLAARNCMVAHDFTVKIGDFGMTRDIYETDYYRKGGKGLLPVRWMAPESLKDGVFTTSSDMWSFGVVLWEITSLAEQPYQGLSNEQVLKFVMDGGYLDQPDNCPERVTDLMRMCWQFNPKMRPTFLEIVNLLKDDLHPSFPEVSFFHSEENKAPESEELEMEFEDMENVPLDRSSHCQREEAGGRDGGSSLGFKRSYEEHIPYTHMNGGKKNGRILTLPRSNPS
# MAP3K5_Cascade = molecular target: T17, MAP3K5_Cascade (Homo sapiens, UniProt Q99683); test: Kinase panel, CaNDY 1 µM; format: biochemical; conditions: CaNDY 1 µM relative to DMSO
# T17 construct: purchased Carna Biosciences
# T17 sequence (Q99683 whole entry): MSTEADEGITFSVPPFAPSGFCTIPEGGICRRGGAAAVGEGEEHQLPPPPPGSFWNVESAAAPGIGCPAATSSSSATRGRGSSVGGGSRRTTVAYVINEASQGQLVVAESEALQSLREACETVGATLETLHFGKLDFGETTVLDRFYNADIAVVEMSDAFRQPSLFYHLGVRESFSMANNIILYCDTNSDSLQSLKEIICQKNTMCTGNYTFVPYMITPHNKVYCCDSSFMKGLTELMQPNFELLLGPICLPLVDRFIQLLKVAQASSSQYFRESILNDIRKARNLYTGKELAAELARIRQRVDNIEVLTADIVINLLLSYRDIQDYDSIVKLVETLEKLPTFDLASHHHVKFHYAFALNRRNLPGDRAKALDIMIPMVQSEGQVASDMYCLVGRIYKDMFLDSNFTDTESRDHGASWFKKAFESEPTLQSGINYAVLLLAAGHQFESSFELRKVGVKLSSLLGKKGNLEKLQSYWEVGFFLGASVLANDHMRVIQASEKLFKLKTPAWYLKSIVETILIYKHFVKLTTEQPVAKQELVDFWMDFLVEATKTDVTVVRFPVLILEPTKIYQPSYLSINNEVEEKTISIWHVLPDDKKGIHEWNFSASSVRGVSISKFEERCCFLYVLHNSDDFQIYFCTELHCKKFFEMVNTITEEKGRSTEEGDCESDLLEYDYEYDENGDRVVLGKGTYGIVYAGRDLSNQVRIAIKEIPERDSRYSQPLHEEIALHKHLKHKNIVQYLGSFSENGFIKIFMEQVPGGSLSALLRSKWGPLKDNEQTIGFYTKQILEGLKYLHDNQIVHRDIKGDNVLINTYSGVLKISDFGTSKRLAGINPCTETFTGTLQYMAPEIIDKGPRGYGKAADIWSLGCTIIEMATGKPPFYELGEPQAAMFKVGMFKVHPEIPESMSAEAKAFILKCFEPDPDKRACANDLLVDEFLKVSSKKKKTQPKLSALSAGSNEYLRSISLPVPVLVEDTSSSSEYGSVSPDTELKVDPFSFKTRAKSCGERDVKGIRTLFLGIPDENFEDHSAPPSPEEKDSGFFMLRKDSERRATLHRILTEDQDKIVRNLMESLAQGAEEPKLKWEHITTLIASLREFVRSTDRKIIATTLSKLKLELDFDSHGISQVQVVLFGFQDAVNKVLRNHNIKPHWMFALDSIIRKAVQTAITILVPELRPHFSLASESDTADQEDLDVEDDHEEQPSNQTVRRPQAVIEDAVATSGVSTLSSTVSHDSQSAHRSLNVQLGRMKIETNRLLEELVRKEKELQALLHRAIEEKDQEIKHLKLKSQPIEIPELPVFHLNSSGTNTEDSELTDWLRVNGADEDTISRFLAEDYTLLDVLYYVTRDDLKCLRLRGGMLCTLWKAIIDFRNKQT
smiles,measurement,setting,value
"[H]/N=C1/NC(=O)C(=Cc2ccc3c(c2)CCO3)S1 [CaNDY, (Z)-5-[(2,3-dihydrobenzofuran-5-yl)methylene]-2-iminothiazolidin-4-one]",remaining activity at 1 µM,GSK3α,76.6%
same,remaining activity at 1 µM,CaMK1δ,103%
same,remaining activity at 1 µM,TRKC,101%
same,IC50,DYRK1A,7.9 nM
same,IC50,DYRK1B,24.1 nM
same,remaining activity at 1 µM,PKCβ2,88.2%
same,remaining activity at 1 µM,PDHK4,92%
same,remaining activity at 1 µM,PIM2,71.6%
same,remaining activity at 1 µM,MLK2_Cascade,124%
same,%Activity,EGFR(T790M/L858R),106.6%
same,%Activity,JAK1,96.9%
same,remaining activity at 1 µM,MNK2,90.3%
same,remaining activity at 1 µM,IRAK1,87.4%
same,%Activity,MAP2K7_Cascade,101.7%
same,remaining activity at 1 µM,MAP3K4_Cascade,101%
same,remaining activity at 1 µM,PDHK2,91.6%
same,protein expression of CK2α,CK2α,did not decrease
same,remaining activity at 1 µM,INSR,103%
same,remaining activity at 1 µM,MAP3K5_Cascade,103%
